{"source": "patent US8623407B2", "about": "“Gabapentin-containing solid compositions and process for preparing the same” (Pfizer Inc., priority 1998, dated 2014)", "assay_type_in_all_cases": "physicochemical", "key": {"[1]": {"assay": "Dehydration reaction (lactam formation) when maintained in a dried state at 105° C.", "conditions": "105° C. over 2-3 hours", "procedure": "To the contrary, in γ-aminobutyric acid derivatives having no or a less bulky substituent at the 3-position thereof, such as γ-aminobutyric acid or 4-amino-3-hydroxy-butanoic acid, the dehydration reaction is not brought about even when maintained in a dried state such as at a temperature of 105° C. over 2-3 hours, and the formation of 4-cyclohexylpyrrolidone (the corresponding lactam form) is not observed. In other words, in the 4-amino-3-substituted-butanoic acid derivative wherein the substituent at the 3-position thereof has a bulky structure, the dehydration reaction could easily be brought about between the amino group and the carboxyl group within the molecule."}, "[2]": {"assay": "Storage stability of baclofen samples: dehydrated condensates content by HPLC", "conditions": "based on baclofen", "procedure": "The baclofen powder samples G and H obtained as described above and untreated baclofen crystals were stored under the conditions as defined in the following Table 8 and then a content of dehydrated condensates formed in each of the samples was determined by means of HPLC. In this Example, the content of the dehydrated condensates is expressed in terms of % by weight, based on baclofen."}, "[3]": {"assay": "Storage stability of pregabalin samples: dehydrated condensate content by HPLC", "conditions": "Table 9, based on pregabalin", "procedure": "The samples I, J and K obtained as described above and untreated pregabalin crystals were stored under the conditions as defined in the following Table 9 and then a content of the dehydrated condensate formed in each of the samples was determined by means of HPLC. In the present Example and the following Example 6, a content of the dehydrated condensate is expressed in terms of % by weight, based on pregabalin.\nThe samples L and M obtained as described above were stored under the conditions as defined in the following Table 10 and then a content of the dehydrated condensate formed in each of the samples was determined by means of HPLC."}}}
{"smiles": "NCC(O)CC(=O)O", "note": "(stereo not drawn) [4-amino-3-hydroxy-butanoic acid]", "values": [{"measurement": "formation of 4-cyclohexylpyrrolidone (the corresponding lactam form)", "setting": "[1]", "result": "not observed"}]}
{"smiles": "NCC(CC(=O)O)c1ccc(Cl)cc1", "note": "(stereo not drawn) [Untreated Baclofen]", "values": [{"measurement": "content of dehydrated condensates", "setting": "[2]; 60° C./1 week (sealed)", "result": 0.36, "unit": "% by weight"}, {"measurement": "content of dehydrated condensates", "setting": "[2]; 60° C./2 weeks (sealed)", "result": 0.57, "unit": "% by weight"}, {"measurement": "content of dehydrated condensates", "setting": "[2]; 60° C./3 weeks (sealed)", "result": 0.70, "unit": "% by weight"}, {"measurement": "content of dehydrated condensates", "setting": "[2]; When Initiated", "result": 0.10, "unit": "% by weight"}]}
{"smiles": "CC(C)CC(CN)CC(=O)O", "note": "(stereo not drawn) [Untreated Pregabalin, 5-methyl-3-aminomethyl-hexanoic acid]", "values": [{"measurement": "content of the dehydrated condensate", "setting": "[3]; 60° C./1 week (sealed)", "result": 0.001, "unit": "% by weight"}, {"measurement": "content of the dehydrated condensate", "setting": "[3]; 60° C./2 weeks (sealed)", "result": 0.001, "unit": "% by weight"}, {"measurement": "content of the dehydrated condensate", "setting": "[3]; When initiated", "result": "<0.001", "unit": "% by weight"}]}
{"smiles": "NCCCC(=O)O", "note": "[γ-aminobutyric acid]", "values": [{"measurement": "formation of 4-cyclohexylpyrrolidone (the corresponding lactam form)", "setting": "[1]", "result": "not observed"}]}
